The text below walks through data of patent US20170121683A1, “ARYL HYDROCARBON RECEPTOR DISRUPTION AND ENHANCEMENT” (priority 2015, published 2017).

Each structure is given as a SMILES string.

Data set [1] deals with hESC-derived hematopoietic cells. In words: cNK, NKP and ILC3 phenotyping by flow cytometry. It is filed as cell-based, human. An excerpt:
FIG. 15A. Gating scheme for identifying cNK (CD94^−CD117^+), NK progenitor cells (NKP, CD94^+CD117^− and CD94^+CD117^−LFA1^+), and ILC (CD94^−CD117^+LFA1^−) phenotypes. FIG. 15B. Representative flow cytometry profile of non-adherent hematopoietic cells differentiated from hESCs in the presence of DMSO, SR-1, or TCDD at Day 11+28. FIG. 15C. cNK, NKP, and NKP/ILC subpopulations from Day 11+28 DMSO, SR-1, and TCDD differentiated hESCs assessed for CD56 and LFA (CD11a/CD18) surface antigen expression. Representative flow cytometry plots are shown, n=3. FIG. 15D. Total percentage of cNK, NKP, and NKP/ILCs present in the non-adherent fraction of differentiating hESCs in the presence of DMSO, SR-1, or TCDD at Day 11+28. n=3, error bars represent SEM, *p<0.05, **p<0.01, ***p<0.001 as compared to DMSO treated controls and assessed by two-way ANOVA+Tukey-Kramer multiple comparisons post-hoc test. FIG. 15E. CD94^−CD117^+ subpopulations were further quantified for expression of LFA^+ (NKP) and LFA^− (ILC) by flow cytometry. n=3, error bars represent SEM, *p<0.05, **p<0.01 as compared to DMSO treated controls and assessed by two-way ANOVA+Tukey-Kramer multiple comparisons post-hoc test.
Spin-EBs were generated as described above (see also Knorr et al. Stem Cells Dev. 2013; 22(13):1861-9; Ni et al. Embryonic Stem Cell Immunobiol. Methods Protoc. Methods Mol. Biol. 2013; 1029:33-41; Hermanson et al. Stem Cells. 2016; 34(1):93-101). Following 11 days of mesoderm conditioning (Day 11), spin-EBs were collected and analyzed by flow cytometry to assess hematopoietic progenitor cell potential (see flow cytometry methods for antibodies used) (FIG. 4A). Spin-EBs yielding >30% CD34^+CD45^+ cells were transferred onto 24-well plates coated with irradiated OP9-DL1 cells (as described in Martin et al. Blood. 2008; 112(7):2730-7; La Motte-Mohs et al. Blood. 2005; 105(4):1431-9) (now defined as Day 11+0). EBs and OP9-DL1 were co-cultured in NK differentiation media (NKDM) supplemented initially with SCF, IL-15, IL-7, Flt3-L (all R&D Systems), and IL-3 (PeproTech) for one week; DMSO, SR-1, or TCDD were also added at Day 11+0. Every week, a one-half media change with NKDM supplemented with SCF, IL-15, IL-7, Flt3-L, and drugs was performed. hESCs were differentiated for four additional weeks (Day 11+28) and non-adherent cells were harvested for analysis.
The following additional antibodies were used (all anti-human): LFA-1 (CD11a/CD18)-APC-R700 (BD Biosciences), CD31-APC (eBioscience), CD33-APC (BD Biosciences), CD34-PECy7 (BD Biosciences), CD34-APC (BD Biosciences), CD41a-APC (BD Biosciences), CD43-APC (BD Biosciences), CD45-APC (BD Biosciences), CD56-PECy7 (BD Biosciences), CD56-BV421 (BD Biosciences), CD94-PerCP-Cy5.5 (BD Biosciences), CD117-PECy7 (BD Biosciences), CD117-APC (eBiosciences), CD144-APC (eBioscience). Samples were analyzed on either an LSRFortessa or LSRII flow cytometer (BD Biosciences). Gating was set relative to isotype controls of identical fluorophores. Data from flow cytometry was analyzed using FlowJo software (Treestar, Ashland, Oreg.).
To assess the effects of AHR modification on NK cell and ILC specification, non-adherent hematopoietic cells derived from hESCs on Day 11+28 cultured in NKDM supplemented with DMSO, SR-1, or TCDD were harvested as single-cell suspensions. Cells were washed with DPBS, filtered, and stained with the following antibodies (all anti-human): CD56-BV421, CD94-PerCP-Cy5.5, CD117-PECy7, and LFA-1 (CD11a/CD18)-APC-R700 in sterile FACS Buffer (DPBS+2% FBS and 0.1% sodium azide) for 30 minutes at 4° C. Cells were washed with FACS buffer and cells were counterstained with Sytox Blue (ThermoFisher Scientific) immediately prior to sorting. Live NKP, cNK, and ILC3 populations were sorted directly into FACS tubes containing NKDM basal media using a FACSAria II (BD Biosciences) cell sorter. Cells were immediately centrifuged, washed once with PBS, and processed from total RNA isolation as described above.
Background: In flow cytometry, cells or beads pass a laser one at a time.

A further data set concerns hESCs. In words: Viability of hESC-derived cells, Sytox Blue Live/Dead Stain. It is filed as cell-based, human. The settings on record: 1 μM SR-1 or 10 nM TCDD. How it is done:
FIG. 8A. Non-adherent hematopoietic progenitor cells derived from hESCs were harvested at Day 6+3, Day 6+5, Day 6+7, and Day 6+9 time points and probed for gene expression by quantitative real-time PCR (qPCR). For each gene, Ct values were normalized to GAPDH at each time point and data is presented as relative fold-change as compared to undifferentiated hESCs. […] FIG. 8B Undifferentiated hESCs were cultured in the presence of 1 μM SR-1, 10 nM TCDD, or DMSO vehicle control for 96 hours and probed for gene expression by qPCR. For each gene, Ct values were normalized to GAPDH at each time point and data is presented as relative fold-change as compared to DMSO treated hESCs. n=3, error bars represent SEM, *p<0.05 assessed by two-way ANOVA+Tukey-Kramer multiple comparisons post-hoc test. FIG. 8C. Both adherent and non-adherent cell fractions treated with either DMSO, SR-1, or TCDD were harvested at Day 6+3, Day 6+6, and Day 6+9 and probed for viability with Sytox Blue Live/Dead Stain. […]
Harvested cells were incubated with PE-Cy7 CD34 (BD Biosciences, San Jose, Calif.) in conjunction with APC CD31, APC CD41a, APC CD43, or APC CD45 for 30 minutes at 4° C. in FACS buffer (DPBS containing 2% fetal bovine serum and 0.1% sodium azide). […] Cells were analyzed using an LSRII flow cytometer (BD Biosciences) and data were analyzed using FlowJo software (TreeStart, Ashland, Oreg.).

[2] abbreviates: Day 11+28, non-adherent fraction, n=3.

With `CC(C)n1cnc2c(NCCc3ccc(O)cc3)nc(-c3csc4ccccc34)nc21` [SR-1, StemReginin-1], in data set [1] (Day 11+28), the “change in CD94−CD117+ population compared to DMSO” value is “significant reduction”. Moreover, in data set [1] (setting [2]), the “NKP (CD94+CD117+) cells, total percentage” value amounted to 16.13±0.58% and the “cNK cells (CD94+CD117−), total percentage” value is on record as 37.0±2.92%. In the data set on hESCs, the “cytotoxic effects on hESCs” value is recorded as “no significant cytotoxic effects”.

Consider `Clc1cc2c(cc1Cl)Oc1cc(Cl)c(Cl)cc1O2` [TCDD, 2,3,7,8-tetrachlorodibenzo-p-dioxin], for which the “shift of NKP population compared to DMSO” value in data set [1] (Day 11+28) is reported as “significantly shifted hESC-derived hematopoietic cells away from NKPs”. In data set [1] (Day 11+28, n=3), the “percentage of CD94−CD117+ cells absent for LFA1 (ILC3)” value worked out at 69.4±4.57%. In data set [1] (setting [2]), the “CD94−CD117+ cells, total percentage” value stood at 28.5±4.42%. Besides, the “cytotoxic effects on hESCs” value in the data set with hESCs was “no significant cytotoxic effects”.
